Laboratory results reported in the supplement of paper PMC10307832.

Columns and labels:
Assay in all cases: relative viability (nuclei count vs DMSO), 5 days (fraction); higher = more cells survive
EHT 1864 + Lapatinib = compound: C1COCCN1CC2=CC(=O)C(=CO2)OCCCCCSC3=C4C=CC(=CC4=NC=C3)C(F)(F)F [EHT 1864] + CS(=O)(=O)CCNCc1ccc(-c2ccc3ncnc(Nc4ccc(OCc5cccc(F)c5)c(Cl)c4)c3c2)o1 [Lapatinib] (partner 2 µM)
Summary of the method: (§1)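 Values are medians from duplicate plates. Each reflects relative viability, defined as the nuclei count of treated wells over that of vehicle wells. Lung cancer cell lines in 1536-well plates were pin-tool dosed one day after seeding with one drug alone or with a fixed anchor-drug dose plus five library-drug doses (not always all listed) in √10 steps, then fixed, stained and imaged at 4× after 5 days.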

EHT 1864 + Bortezomib = compound: C1COCCN1CC2=CC(=O)C(=CO2)OCCCCCSC3=C4C=CC(=CC4=NC=C3)C(F)(F)F [EHT 1864] + CC(C)C[C@H](NC(=O)[C@H](Cc1ccccc1)NC(=O)c1cnccn1)B(O)O [Bortezomib] (partner 0.002 µM)
Summary of the method: as §1

EHT 1864 + Decitabine = compound: C1COCCN1CC2=CC(=O)C(=CO2)OCCCCCSC3=C4C=CC(=CC4=NC=C3)C(F)(F)F [EHT 1864] + Nc1ncn([C@H]2C[C@H](O)[C@@H](CO)O2)c(=O)n1 [Decitabine] (partner 2 µM)
Summary of the method: as §1

EHT 1864 + AZD7762 = compound: C1COCCN1CC2=CC(=O)C(=CO2)OCCCCCSC3=C4C=CC(=CC4=NC=C3)C(F)(F)F [EHT 1864] + NC(=O)Nc1cc(-c2cccc(F)c2)sc1C(=O)N[C@H]1CCCNC1 [AZD7762] (partner 0.2 µM)
Summary of the method: as §1

Cell Line | relative viability (EHT 1864 + Lapatinib; first compound 0.04 µM) | relative viability (EHT 1864 + Lapatinib; first compound 0.4 µM) | relative viability (EHT 1864 + Lapatinib; first compound 1.265 µM) | relative viability (EHT 1864 + Lapatinib; first compound 4 µM) | relative viability (EHT 1864 + Bortezomib; first compound 0.04 µM) | relative viability (EHT 1864 + Bortezomib; first compound 0.4 µM) | relative viability (EHT 1864 + Bortezomib; first compound 1.265 µM) | relative viability (EHT 1864 + Bortezomib; first compound 4 µM) | relative viability (EHT 1864 + Decitabine; first compound 0.04 µM) | relative viability (EHT 1864 + Decitabine; first compound 0.1265 µM) | relative viability (EHT 1864 + Decitabine; first compound 0.4 µM) | relative viability (EHT 1864 + Decitabine; first compound 1.265 µM) | relative viability (EHT 1864 + Decitabine; first compound 4 µM) | relative viability (EHT 1864 + AZD7762; first compound 0.04 µM) | relative viability (EHT 1864 + AZD7762; first compound 0.1265 µM) | relative viability (EHT 1864 + AZD7762; first compound 0.4 µM) | relative viability (EHT 1864 + AZD7762; first compound 1.265 µM) | relative viability (EHT 1864 + AZD7762; first compound 4 µM) | relative viability (EHT 1864 + Lapatinib; first compound 0.1265 µM) | relative viability (EHT 1864 + Bortezomib; first compound 0.1265 µM)
HCC-366 | 1.02 | 0.929 | 1.04 | 0.992 | 1.03 | 0.928 | 1.03 | 1.11 | 0.338 | 0.324 | 0.331 | 0.333 | 0.326 | 0.262 | 0.232 | 0.248 | 0.28 | 0.243 | – | –
HCC-827 | 0.233 | 0.219 | 0.164 | 0.191 | 1.1 | 0.999 | 1.11 | 0.985 | 0.332 | 0.291 | 0.319 | 0.399 | 0.317 | 0.198 | 0.22 | 0.228 | 0.252 | 0.201 | 0.204 | 0.844
HOP-62 | 1.07 | 1.01 | 1.09 | 1.18 | 1.18 | 0.618 | 1.08 | 0.986 | 0.225 | – | 0.202 | 0.241 | 0.246 | 0.584 | – | 0.466 | 0.485 | 0.794 | – | –
LC-2-ad | 0.993 | 0.954 | 0.904 | 0.835 | 0.924 | 0.993 | 1.04 | 0.903 | 0.783 | 0.733 | 0.762 | 0.773 | 0.755 | 0.808 | 0.634 | 0.88 | 0.855 | 0.806 | – | –
LCLC-97TM1 | 1.03 | 0.527 | 1.22 | 1.12 | 0.754 | 0.75 | 0.401 | 0.7 | 0.271 | 0.237 | 0.22 | 0.235 | 0.271 | 0.275 | 0.257 | 0.152 | 0.223 | 0.234 | – | 0.53
LOU-NH91 | 0.769 | 0.802 | 0.81 | 0.797 | 0.566 | 0.492 | 0.498 | 0.498 | 0.793 | 0.754 | 0.842 | 0.804 | 0.754 | 0.746 | 0.67 | 0.759 | 0.735 | 0.755 | 0.746 | 0.514
LU99A | 1.02 | 0.873 | 1.17 | 0.949 | 1.06 | 1.06 | 1.25 | 1.13 | 0.843 | 0.757 | 0.827 | 0.903 | 0.872 | 0.445 | 0.203 | 0.359 | 0.308 | 0.403 | 0.64 | 0.672
LXF-289 | 0.883 | 0.883 | 0.851 | 0.799 | 1.02 | 0.929 | 0.973 | 0.872 | 0.431 | 0.351 | 0.388 | 0.385 | 0.361 | 1.14 | 1.01 | 1.03 | 1.07 | 1.1 | 0.821 | 0.92
NCI-H23 | 0.927 | 1.05 | 0.938 | 0.928 | 0.879 | 0.84 | 0.995 | 0.924 | 0.297 | 0.29 | 0.314 | 0.343 | 0.393 | 0.203 | 0.231 | 0.223 | 0.198 | 0.221 | – | –
